Assay results reported in patent publication US5041567A, “Antibacterial monic acid derivatives” (Beecham Group plc, priority 1982, dated 1991).
In brackets after ≈: the same amount, converted by molar mass. Like-named read-outs stand apart in the source and are kept apart here.

Assays:
[1] = test system: Haemophilus influenzae Wy21; assay: MIC against human bacteria in vitro; format: cell-based; settings: Haemophilus influenzae Wy21; 5% chocolated horse blood agar, 18 hours; read-out: MIC
Strep. uberis SPU1 = assay: MIC against veterinary bacteria in vitro; settings: Streptococcus uberis, SPU1, 18 h
Description: (§1) The activity of the compounds of the Examples against various veterinarily important bacteria, was assayed in vitro using two-fold serial dilutions in Diagnostic Sensitivity Test Agar inoculated with 10^4 organisms.

S. dublin S7 = assay: MIC against veterinary bacteria in vitro; settings: Salmonella enterica, S7, 18 h
Description: as §1

M. hyorhinis ATCC 25021 = assay: MIC against mycoplasma in vitro; format: cell-based; settings: Mesomycoplasma hyorhinis, ATCC25021, 144 h
Staph. aureus W2827 = assay: MIC against human bacteria in vitro; format: cell-based; settings: Staphylococcus aureus
[2] = test system: M. suipneumoniae J2206/183^b; assay: MIC against mycoplasma in vitro; format: cell-based; settings: Mesomycoplasma hyopneumoniae, 144 h
Bacillus subtilis 6633 = assay: MIC against human bacteria in vitro; format: cell-based; settings: Bacillus subtilis 6633; 5% chocolated horse blood agar, 18 hours; read-out: MIC
[3] = test system: M. bovigenitalium ATCC 14173; assay: MIC against mycoplasma in vitro; format: cell-based; settings: 144 h
[4] = test system: Strep. pyogenes R80/421-A; assay: MIC against human bacteria in vitro; format: cell-based; settings: Streptococcus pyogenes
K. aerogenes A = assay: MIC against human bacteria in vitro; format: cell-based; settings: Klebsiella aerogenes
E. coli ESS = assay: MIC against human bacteria in vitro; format: cell-based; settings: Escherichia coli; E. coli ESS; 5% chocolated horse blood agar, 18 hours; read-out: MIC
M. suipneumoniae TAM 6N = assay: MIC against mycoplasma in vitro; format: cell-based; settings: Mesomycoplasma hyopneumoniae, TAM6N, 144 h
M. suipneumoniae JF 435 = assay: MIC against mycoplasma in vitro; format: cell-based; settings: Mesomycoplasma hyopneumoniae, JF435, 144 h
[5] = test system: M. hyosynoviae ATCC 25591; assay: MIC against mycoplasma in vitro; format: cell-based; settings: 144 h
[6] = test system: Ps. aeruginosa NCTC 10662; assay: MIC against human bacteria in vitro; format: cell-based; settings: Pseudomonas aeruginosa
[7] = test system: Corynebacterium xerosis 9755; assay: MIC against human bacteria in vitro; format: cell-based
Strep. agalactiae SPA1 = assay: MIC against veterinary bacteria in vitro; settings: Streptococcus agalactiae, SPA1, 18 h
Description: as §1

[8] = test system: Strep. suis (group D) SPS11; assay: MIC against veterinary bacteria in vitro; settings: Streptococcus suis, 18 h
Description: as §1

[9] = test system: Neisseria catarrhalis 1502; assay: MIC against human bacteria in vitro; format: cell-based
Staph. aureus Russell = assay: MIC against human bacteria in vitro; format: cell-based; settings: Staphylococcus aureus
P. mirabilis 889 = assay: MIC against human bacteria in vitro; format: cell-based
M. dispar NCTC 10125 = assay: MIC against mycoplasma in vitro; format: cell-based; settings: 144 h
M. suipneumoniae MS 16 = assay: MIC against mycoplasma in vitro; format: cell-based; settings: Mesomycoplasma hyopneumoniae, MS16, 144 h
[10] = test system: Staph. aureus B4 (pen. resistant); assay: MIC against veterinary bacteria in vitro; settings: Staphylococcus aureus, 18 h
Description: as §1

Strep. faecalis I = assay: MIC against human bacteria in vitro; format: cell-based; settings: Enterococcus faecalis
Past. multocida PA1 = assay: MIC against veterinary bacteria in vitro; settings: Pasteurella multocida, PA1, 18 h
Description: as §1

M. suipneumoniae Str. 11 = assay: MIC against mycoplasma in vitro; format: cell-based; settings: Mesomycoplasma hyopneumoniae
Staph. aureus Oxford = assay: MIC against human bacteria in vitro; format: cell-based; settings: Staphylococcus aureus; Staph. aureus Oxford; 5% chocolated horse blood agar, 18 hours; read-out: MIC
Strep. agalactiae 2788-B = assay: MIC against human bacteria in vitro; format: cell-based; settings: Streptococcus agalactiae
Strep. spp. 64/848-C = assay: MIC against human bacteria in vitro; format: cell-based
[11] = test system: Corynebacterium pyogenes CY1; assay: MIC against veterinary bacteria in vitro; settings: CY1, 18 h
Description: as §1

Sarcina lutea 8340 = assay: MIC against human bacteria in vitro; format: cell-based
[12] = test system: Pasteurella multocida 1633; assay: MIC against human bacteria in vitro; format: cell-based
[13] = test system: M. suipneumoniae ATCC 25095; assay: MIC against mycoplasma in vitro; format: cell-based; settings: Mesomycoplasma hyopneumoniae, ATCC25095, 144 h
M. suipneumoniae NB12 = assay: MIC against mycoplasma in vitro; format: cell-based; settings: Mesomycoplasma hyopneumoniae

SMILES: C/C(=C/c1ncc(-c2ccccc2)o1)C[C@@H]1OC[C@H](C[C@@H]2O[C@H]2[C@@H](C)[C@H](C)O)[C@@H](O)[C@H]1O [Example 2, 2-{3-[5-(2,3-epoxy-5-hydroxy-4-methylhexyl)-3,4-dihydroxytetrahydropyran-2-yl]-2-methylprop-1(Z)-enyl}-5-phenyloxazole]
- MIC [1]: 12.5 µg/mL (≈ 28.2 µM)
- MIC (Strep. uberis SPU1): 5 µg/mL (≈ 11.3 µM)
- MIC (S. dublin S7): > 80 µg/mL
- MIC (M. hyorhinis ATCC 25021; M. hyorhinis ATCC 25021, 6 days, 37° C., read-out: MIC): 5 µg/mL (≈ 11.3 µM)
- MIC (Staph. aureus W2827; W2827, 18 h): > 50 µg/mL
- MIC ([2]; M. suipneumoniae J2206/183^b, 6 days, 37° C., read-out: MIC): 10 µg/mL (≈ 22.5 µM)
- MIC (Bacillus subtilis 6633): 25 µg/mL (≈ 56.4 µM)
- MIC ([3]; M. bovigenitalium ATCC 14173, 6 days, 37° C., read-out: MIC): 0.5 µg/mL (≈ 1.13 µM)
- MIC ([4]; R80/421A, 18 h): > 50 µg/mL
- MIC (K. aerogenes A; 18 h): > 50 µg/mL
- MIC (E. coli ESS): 25 µg/mL (≈ 56.4 µM)
- MIC (M. suipneumoniae TAM 6N; M. suipneumoniae TAM 6N, 6 days, 37° C., read-out: MIC): > 10 µg/mL
- MIC (M. suipneumoniae JF 435; M. suipneumoniae JF 435, 6 days, 37° C., read-out: MIC): > 10 µg/mL
- MIC ([5]; M. hyosynoviae ATCC 25591, 6 days, 37° C., read-out: MIC): 5 µg/mL (≈ 11.3 µM)
- MIC ([6]; NCTC10662, 18 h): > 50 µg/mL
- MIC ([7]; Corynebacterium xerosis, 9755, 18 h): > 50 µg/mL
- MIC (Strep. agalactiae SPA1): 20 µg/mL (≈ 45.1 µM)
- MIC [8]: > 80 µg/mL
- MIC ([9]; Neisseria, 1502, 18 h): > 50 µg/mL
- MIC (Staph. aureus Russell; 18 h): > 50 µg/mL
- MIC (P. mirabilis 889; Proteus mirabilis, 889, 18 h): > 50 µg/mL
- MIC (M. dispar NCTC 10125; M. dispar NCTC 10125, 6 days, 37° C., read-out: MIC): 2.5 µg/mL (≈ 5.64 µM)
- MIC (M. suipneumoniae MS 16; M. suipneumoniae MS 16, 6 days, 37° C., read-out: MIC): 5 µg/mL (≈ 11.3 µM)
- MIC [10]: 20 µg/mL (≈ 45.1 µM)
- MIC (Strep. faecalis I; 18 h): > 50 µg/mL
- MIC (Past. multocida PA1): > 80 µg/mL
- MIC (M. suipneumoniae Str. 11; 144 h, M. suipneumoniae Str. 11, 6 days, 37° C., read-out: MIC): 10 µg/mL (≈ 22.5 µM)
- MIC (Staph. aureus Oxford): 25 µg/mL (≈ 56.4 µM)
- MIC (Strep. agalactiae 2788-B; 2788B, 18 h): > 50 µg/mL
- MIC (Strep. spp. 64/848-C; 18 h): > 50 µg/mL
- MIC [11]: > 80 µg/mL
- MIC (Sarcina lutea 8340; Micrococcus luteus, 8340, 18 h): > 50 µg/mL
- MIC ([12]; Pasteurella multocida, 1633, 18 h): > 50 µg/mL
- MIC ([13]; M. suipneumoniae ATCC 25095, 6 days, 37° C., read-out: MIC): 10 µg/mL (≈ 22.5 µM)
- MIC (M. suipneumoniae NB12; 144 h, M. suipneumoniae NB12, Friis broth, 0.9% agarose, 6 days, 37° C., read-out: MIC): > 10 µg/mL

SMILES: C/C(=C\c1ncc(-c2ccc(S(C)(=O)=O)cc2)o1)C[C@@H]1OC[C@H](C[C@@H]2O[C@H]2[C@@H](C)[C@H](C)O)[C@@H](O)[C@H]1O [Example 10]
- MIC [1]: 2 µg/mL (≈ 3.83 µM)
- MIC (Strep. uberis SPU1): 0.625 µg/mL (≈ 1.2 µM)
- MIC (S. dublin S7): > 80 µg/mL
- MIC (M. hyorhinis ATCC 25021): 0.025 µg/mL (≈ 0.0479 µM)
- MIC (Staph. aureus W2827; Staph. aureus W2827, 5% chocolated horse blood agar, 18 hours, read-out: MIC): 8 µg/mL (≈ 15.3 µM)
- MIC [2]: 0.05 µg/mL (≈ 0.0959 µM)
- MIC (Bacillus subtilis 6633): 2 µg/mL (≈ 3.83 µM)
- MIC [3]: 0.025 µg/mL (≈ 0.0479 µM)
- MIC ([4]; Strep. pyogenes R80/421-A, 5% chocolated horse blood agar, 18 hours, read-out: MIC): 8 µg/mL (≈ 15.3 µM)
- MIC (K. aerogenes A; K. aerogenes A, 5% chocolated horse blood agar, 18 hours, read-out: MIC): > 128 µg/mL
- MIC (E. coli ESS): 8 µg/mL (≈ 15.3 µM)
- MIC (M. suipneumoniae TAM 6N): 0.05 µg/mL (≈ 0.0959 µM)
- MIC (M. suipneumoniae JF 435): 0.05 µg/mL (≈ 0.0959 µM)
- MIC [5]: 0.05 µg/mL (≈ 0.0959 µM)
- MIC ([6]; NCTC10662, Ps. aeruginosa NCTC 10662, 5% chocolated horse blood agar, 18 hours, read-out: MIC): > 128 µg/mL
- MIC ([7]; Corynebacterium xerosis 9755, 5% chocolated horse blood agar, 18 hours, read-out: MIC): > 128 µg/mL
- MIC (Strep. agalactiae SPA1): 2.5 µg/mL (≈ 4.79 µM)
- MIC [8]: 10 µg/mL (≈ 19.2 µM)
- MIC ([9]; Neisseria catarrhalis 1502, 5% chocolated horse blood agar, 18 hours, read-out: MIC): 8 µg/mL (≈ 15.3 µM)
- MIC (Staph. aureus Russell; Staph. aureus Russell, 5% chocolated horse blood agar, 18 hours, read-out: MIC): 8 µg/mL (≈ 15.3 µM)
- MIC (P. mirabilis 889; Proteus mirabilis, P. mirabilis 889, 5% chocolated horse blood agar, 18 hours, read-out: MIC): > 128 µg/mL
- MIC (M. dispar NCTC 10125): 0.025 µg/mL (≈ 0.0479 µM)
- MIC (M. suipneumoniae MS 16): 0.025 µg/mL (≈ 0.0479 µM)
- MIC [10]: 5 µg/mL (≈ 9.59 µM)
- MIC (Strep. faecalis I; Strep. faecalis I, 5% chocolated horse blood agar, 18 hours, read-out: MIC): > 128 µg/mL
- MIC (Past. multocida PA1): 5 µg/mL (≈ 9.59 µM)
- MIC (M. suipneumoniae Str. 11; STR.11, 144 h): 0.025 µg/mL (≈ 0.0479 µM)
- MIC (Staph. aureus Oxford): 8 µg/mL (≈ 15.3 µM)
- MIC (Strep. agalactiae 2788-B; Strep. agalactiae 2788-B, 5% chocolated horse blood agar, 18 hours, read-out: MIC): 8 µg/mL (≈ 15.3 µM)
- MIC (Strep. spp. 64/848-C; Strep. spp. 64/848-C, 5% chocolated horse blood agar, 18 hours, read-out: MIC): 4 µg/mL (≈ 7.67 µM)
- MIC [11]: > 80 µg/mL
- MIC (Sarcina lutea 8340; Micrococcus luteus, Sarcina lutea 8340, 5% chocolated horse blood agar, 18 hours, read-out: MIC): > 128 µg/mL
- MIC ([12]; Pasteurella multocida 1633, 5% chocolated horse blood agar, 18 hours, read-out: MIC): 8 µg/mL (≈ 15.3 µM)
- MIC [13]: 0.025 µg/mL (≈ 0.0479 µM)
- MIC (M. suipneumoniae NB12; NB12, 144 h): 0.05 µg/mL (≈ 0.0959 µM)
